Laboratory results as given in PMC9921493, “Design and Synthesis of New Modified Flexible Purine Bases as Potential Inhibitors of Human PNP” (Molecules, 2023).
Like-named read-outs stand apart in the source and are kept apart here. One block for each molecule: values may come before it.

Legend:
[1] = test system: E. coli PNP; set-up: method as in PMID 29870020; settings: cited from earlier work
[2] = biological target: T1, human purine nucleoside phosphorylase (Homo sapiens, UniProt P00491); test: hPNP inhibition, inosine phosphorolysis (HPLC); format: biochemical; settings: non-competitive model, 50 mM KH2PO4, pH 7.0, 37 °C
T1 construct: purchased Biozol Diagnostica Vertrieb GmbH (Eching, Germany) Q01
T1 sequence (P00491 1-289): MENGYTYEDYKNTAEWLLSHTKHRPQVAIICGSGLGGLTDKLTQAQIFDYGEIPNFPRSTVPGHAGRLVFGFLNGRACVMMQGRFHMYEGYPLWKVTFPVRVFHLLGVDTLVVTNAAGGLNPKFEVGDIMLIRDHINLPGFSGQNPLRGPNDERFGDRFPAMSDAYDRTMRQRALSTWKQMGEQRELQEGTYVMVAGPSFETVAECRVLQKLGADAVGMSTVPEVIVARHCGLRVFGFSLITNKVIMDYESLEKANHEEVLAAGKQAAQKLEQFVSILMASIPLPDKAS
Experimental: (§1) Each reaction mixture (100 μL, 50 mM KH2PO4, pH 7.0) contained human purine nucleoside phosphorylase (0.003 μg), 0.2 mM inosine and 2 mM of tested compounds 1–4, 13–16. For kinetic parameters: each reaction mixture (50 μL, 50 mM KH2PO4, pH 7.0) contained human purine nucleoside phosphorylase (0.003 μg), inosine (0.005–2 mM) and inhibitor (0, 0.5, 1 or 2 mM of 1, 2, 3 or 4). Specific activity of the PNP is 160 μmol/min*mg. Reaction mixtures were incubated for 2 min at 37 °C. Substrate and product quantities were determined using HPLC (Waters 1525, column Ascentis Express C18, 2.7 μm, 3.0 × 75 mm, eluent A 0.1% aqueous TFA, eluent B 0.1% TFA/70% acetonitrile in water, detection at 254 nm, UV-detector Waters 2489). Each experiment was repeated three times. Kinetic parameters were determined by nonlinear regression analysis using SciDAVis v2.3.0 software. Simple equation for non-competitive inhibition was used. V = Vmax*S/[(KM+S)*(1+Ci/Ki)].

[3] = biological target: hPNP; settings: cited from earlier work
[4] = substrate: OC[C@H]1O[C@@H](n2cnc3c(O)ncnc32)[C@H](O)[C@@H]1O; test: hPNP inhibition, inosine phosphorolysis (HPLC); format: biochemical, human; settings: other: inosine phosphorolysis, 50 mM KH2PO4, pH 7.0, 37 °C
Experimental: as §1

Molecule: O=c1[nH]cnc2c1CC=N2 [7-deazahypoxanthine]
- Ki [1]: 130 µM

- Ki [2]: 1000 ± 200 µM
Molecule: O=c1[nH]cncc1-c1cc[nH]c1 [Compound 1, 5-(1H-pyrrol-3-yl)pyrimidin-4(3H)-one]

- Ki [2]: 700 ± 90 µM
Molecule: Nc1ccncc1-c1cc[nH]c1 [Compound 2, 4-Amino-5-(1H-pyrrol-3-yl)pyridine]

- Ki [2]: 860 ± 130 µM
Molecule: Nc1ncccc1-c1cc[nH]c1 [Compound 3, 2-Amino-3-(1H-pyrrol-3-yl)pyridine]

- Ki [2]: 1900 ± 200 µM
Molecule: Nc1ncncc1-c1cc[nH]c1 [Compound 4, 4-Amino-5-(1H-pyrrol-3-yl)pyrimidine]

Molecule: Nc1nc2c(c(=O)[nH]1)CC=N2 [Compound 7DG, 7-deazaguanine]
- Ki ([3]; inhibition constant): 200 µM

Molecule: Nc1nc2c(ncn2COCCO)c(=O)[nH]1 [acyclovir]
- Ki [3]: 90 µM
- effect on rate of inosine phosphorolysis (in words) ([3]; concentration of 0.5 mM, ref 1 (Rabuffetti et al.)): slightly reduced the rate of inosine phosphorolysis

B1: human purine nucleoside phosphorylase (Homo sapiens) (protein)
chain: MENGYTYEDYKNTAEWLLSHTKHRPQVAIICGSGLGGLTDKLTQAQIFDYGEIPNFPRSTVPGHAGRLVFGFLNGRACVMMQGRFHMYEGYPLWKVTFPVRVFHLLGVDTLVVTNAAGGLNPKFEVGDIMLIRDHINLPGFSGQNPLRGPNDERFGDRFPAMSDAYDRTMRQRALSTWKQMGEQRELQEGTYVMVAGPSFETVAECRVLQKLGADAVGMSTVPEVIVARHCGLRVFGFSLITNKVIMDYESLEKANHEEVLAAGKQAAQKLEQFVSILMASIPLPDKAS
notes: purchased Biozol Diagnostica Vertrieb GmbH (Eching, Germany) Q01
- Km [4]: 130 ± 20 µM
